Data on 40 compounds can be found in US11731972B2, “Spiro compounds as glycosidase inhibitors” (Asceneuron SA, priority 2018, dated 2023).

One may read the IC50 as the midpoint of a concentration-inhibition curve. A high value points to weaker potency in that assay.

The experiment concerns the target His-Tagged hOGA (human O-GlcNAcase) (Homo sapiens (Human), UniProt O60502). As to the kind of experiment: Human O-GlcNAcase enzyme inhibition assay (Example B01). The class given is biochemical. The following applies: OGA enzyme inhibition assay; FL-GlcNAc substrate, 60 min, room temperature, pH 6.5. The procedure: Example B01: Human O-GlcNAcase Enzyme Inhibition Assay
5 μl of the appropriate concentration of a solution of inhibitor in McIlvaine's Buffer (pH 6.5) in 2% DMSO (for a dose response curve calculation) is added into each well of a 384-well plate (Greiner, 781900). Then, 20 nM of His-Tagged hOGA and 10 μM of FL-GlcNAc (Fluorescein mono-beta-D-(2-deoxy-2-N-acetyl) glucopyranoside; Marker Gene Technologies Inc, M1485) were added to the 384-well plate for a final volume of 20 μl. After incubation for 60 min at room temperature, the reaction was terminated by the addition of 10 μL of stop buffer (200 mM glycine, pH 10.75). The level of fluorescence (λexc 485 nm; (λemm 520 nm) was read on a PHERAstar machine. The amount of fluorescence measured was plotted against the concentration of inhibitor to produce a sigmoidal dose response curve to calculate an IC50. All individual data was corrected by subtraction of the background (Thiamet 3 uM=100% inhibition) whilst 0.5% DMSO was considered as the control value (no inhibition).

His-Tagged hOGA (human O-GlcNAcase), sequence (O60502 whole entry): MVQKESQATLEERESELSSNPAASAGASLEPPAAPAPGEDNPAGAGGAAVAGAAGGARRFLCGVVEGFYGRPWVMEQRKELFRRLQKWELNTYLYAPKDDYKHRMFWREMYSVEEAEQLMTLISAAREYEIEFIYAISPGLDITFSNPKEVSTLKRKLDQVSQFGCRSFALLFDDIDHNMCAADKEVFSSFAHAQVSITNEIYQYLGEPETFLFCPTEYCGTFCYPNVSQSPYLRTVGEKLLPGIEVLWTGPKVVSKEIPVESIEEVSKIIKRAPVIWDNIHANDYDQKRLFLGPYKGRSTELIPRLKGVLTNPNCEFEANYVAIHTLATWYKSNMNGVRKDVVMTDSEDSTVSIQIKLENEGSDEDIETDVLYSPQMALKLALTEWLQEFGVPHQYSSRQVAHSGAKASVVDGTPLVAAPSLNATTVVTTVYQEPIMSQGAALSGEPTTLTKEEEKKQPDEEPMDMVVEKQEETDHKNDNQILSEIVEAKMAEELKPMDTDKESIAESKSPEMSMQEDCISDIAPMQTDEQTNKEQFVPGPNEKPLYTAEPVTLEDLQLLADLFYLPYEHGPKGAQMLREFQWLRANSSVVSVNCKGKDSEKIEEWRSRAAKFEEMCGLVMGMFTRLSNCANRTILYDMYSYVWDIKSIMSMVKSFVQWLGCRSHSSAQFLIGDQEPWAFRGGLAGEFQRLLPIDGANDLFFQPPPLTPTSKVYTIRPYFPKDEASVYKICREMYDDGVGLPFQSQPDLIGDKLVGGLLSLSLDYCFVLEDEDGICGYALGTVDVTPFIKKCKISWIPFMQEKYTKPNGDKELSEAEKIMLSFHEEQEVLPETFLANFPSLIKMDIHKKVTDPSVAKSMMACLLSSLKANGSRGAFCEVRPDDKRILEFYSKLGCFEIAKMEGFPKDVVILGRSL

As to `CC(c1ccc2c(c1)OCC2)N1CCC2(CC1)NC(=O)N(Cc1ccc(S(C)(=O)=O)cc1)C2=O` (racemic) [Example 11], the IC50 was < 50 nM.

`COCCN1C(=O)NC2(CCN(C(C)c3ccc4scnc4c3)CC2)C1=O` (racemic) [Example 7, 8-(1-(benzo[d]thiazol-5-yl)ethyl)-3-(2-methoxyethyl)-1,3,8-triazaspiro[4.5]decane-2,4-dione] had an IC50 of 200 to 1000 nM.

As for `CC(c1ccc2c(c1)OCC2)N1CCC2(CC1)NC(=O)N(Cc1ccc(C(F)(F)F)nc1)C2=O` (racemic) [Example 9], the IC50 lay within 50 to 200 nM.

In turn, `CC(=O)Nc1ncc(CN2CCC3(CC2)NC(=O)N(c2cc(C)nc(C)c2)C3=O)s1` (racemic) [IA2] showed an IC50 of 50 to 200 nM.

Take `Cc1cc(CN2C(=O)NC3(CCN(C(C)c4ccc5scnc5c4)CC3)C2=O)ccn1` (racemic) [Example 67]: the IC50 was in the range of 50 to 200 nM.

As to `COCCN1C(=O)NC2(CCN(C(C)c3ccc4c(c3)OCC4)CC2)C1=O` (racemic) [Example 6, 8-(1-(2,3-dihydrobenzofuran-6-yl)ethyl)-3-(2-methoxyethyl)-1,3,8-triazaspiro[4.5]decane-2,4-dione], the IC50 lay within 50 to 200 nM.

`CC(c1ccc2scnc2c1)N1CCC2(CC1)C(=O)N(Cc1ccc(C#N)cc1)C(=O)N2C` (racemic) [Example 75] came in with an IC50 of 1000 to 10000 nM.

In the case of `CC(=O)Nc1ncc(CN2CCC3(CC2)NC(=O)N(Cc2ccnc(C)c2)C3=O)s1` (racemic) [IA5], the IC50 is < 50 nM.

For the compound `CC(c1ccc2scnc2c1)N1CCC2(CC1)NC(=O)NC2=O` (racemic) [Example 3, 8-(1-(benzo[d]thiazol-5-yl)ethyl)-1,3,8-triazaspiro[4.5]decane-2,4-dione], the IC50 fell in the range of 1000 to 10000 nM.

Take `CC(c1ccc2scnc2c1)N1CCC2(CC1)CN(c1cncnc1)C(=O)N2` (racemic) [Example 37, 8-(1-(benzo[d]thiazol-5-yl)ethyl)-3-(pyrimidin-5-yl)-1,3,8-triazaspiro[4.5]decan-2-one]: the concentration for half-maximal inhibition (IC50) lay in the range of 50 to 200 nM.

In the case of `CC(=O)Nc1ncc(CN2CCC3(CC2)NC(=O)N(Cc2ccc(C(F)(F)F)nc2)C3=O)s1` [IA1], the IC50 lay in the range of 50 to 200 nM.

For `CC(c1ccc2scnc2c1)N1CCC2(CCN(c3ccc(C#N)cc3)C2)CC1` (racemic) [Example 28, 4-(8-(1-(benzo[d]thiazol-5-yl)ethyl)-2,8-diazaspiro[4.5]decan-2-yl) benzonitrile], the half-inhibitory concentration (IC50) fell in the range of 200 to 1000 nM.

For the compound `CC(c1ccc2scnc2c1)N1CCC2(CC1)CN(c1cccnn1)C(=O)N2` (racemic) [Example 59], the IC50 was < 50 nM.

In turn, `CC(c1ccc2c(c1)OCC2)N1CCC2(CC1)C(=O)N(Cc1ccc(C#N)cc1)C(=O)N2C` (racemic) [Example 74] yielded an IC50 of 1000 to 10000 nM.

Turning to `Cc1cc(N2CC3(CCN(C(C)c4ccc5c(c4)OCC5)CC3)CC2=O)n2nccc2n1` (racemic) [Example 16, 8-(1-(2,3-dihydrobenzofuran-6-yl)ethyl)-2-(5-methylpyrazolo[1,5-a]pyrimidin-7-yl)-2,8-diazaspiro[4.5]decan-3-one], the IC50 was in the range of 1000 to 10000 nM.

Regarding `Cc1cc(CN2C(=O)NC3(CCN(C(C)c4ccc5scnc5c4)CC3)C2=O)cc(C)n1` (racemic) [Example 66], the 50% inhibitory concentration (IC50) was in the range of 50 to 200 nM.

As to `CC(c1ccc2c(c1)OCC2)N1CCC2(CC1)CC(=O)N(Cc1ccc(S(C)(=O)=O)cc1)C2` (racemic) [Example 18, 8-(1-(2,3-dihydrobenzofuran-6-yl)ethyl)-2-(4-(methylsulfonyl)benzyl)-2,8-diazaspiro[4.5]decan-3-one], the IC50 lay in the range of 200 to 1000 nM.

`CC(c1ccc2scnc2c1)N1CCC2(CC1)NC(=O)N(Cc1ccc(C#N)cc1)C2=O` (racemic) [Example 22, 4-((8-(1-(benzo[d]thiazol-5-yl)ethyl)-2,4-dioxo-1,3,8-triazaspiro[4.5]decan-3-yl)methyl)benzonitrile] came in with an IC50 of 50 to 200 nM.

`CC(c1ccc2scnc2c1)N1CCC2(CC1)CN(c1cccc(S(C)(=O)=O)c1)C(=O)N2` (racemic) [Example 35, 8-(1-(benzo[d]thiazol-5-yl)ethyl)-3-(3-(methylsulfonyl)phenyl)-1,3,8-triazaspiro[4.5]decan-2-one]: the IC50 fell in the range of 50 to 200 nM.

In turn, `CC(c1ccc2scnc2c1)N1CCC2(CC1)C(=O)N(Cc1ccc(C#N)cc1)C(=O)N2Cc1ccc(C#N)cc1` (racemic) [Example 23, 4,4′-((8-(1-(benzo[d]thiazol-5-yl)ethyl)-2,4-dioxo-1,3,8-triazaspiro[4.5]decane-1,3-diyl)bis(methylene))dibenzonitrile] came in with an IC50 of 200 to 1000 nM.

`CC(c1ccc2scnc2c1)N1CCC2(CC1)CC(=O)N(c1ccc(C#N)cc1)C2` (racemic) [Example 15, 4-(8-(1-(benzo[d]thiazol-5-yl)ethyl)-3-oxo-2,8-diazaspiro[4.5]decan-2-yl)benzonitrile] displayed a concentration for half-maximal inhibition (IC50) of 1000 to 10000 nM.

With `CC(=O)Nc1ncc(CN2CCC3(CC2)CC(=O)N(c2ccc(C#N)cc2)C3)s1` (racemic) [IA7], the IC50 lay within 200 to 1000 nM.

In the case of `CC(c1ccc2scnc2c1)N1CCC2(CCN(Cc3ccc(C#N)cc3)C2=O)CC1` (racemic) [Example 26, 4-((8-(1-(benzo[d]thiazol-5-yl)ethyl)-1-oxo-2,8-diazaspiro[4.5]decan-2-yl)methyl)benzonitrile], the IC50 lay within 200 to 1000 nM.

For the compound `CC(c1ccc2scnc2c1)N1CCC2(CC1)CN(c1ccc(F)cc1)C(=O)N2` (racemic) [Example 36, 8-(1-(benzo[d]thiazol-5-yl)ethyl)-3-(4-fluorophenyl)-1,3,8-triazaspiro[4.5]decan-2-one], the concentration for half-maximal inhibition (IC50) is 200 to 1000 nM.

In turn, `Cc1ccc(N2C(=O)NC3(CCN(C(C)c4ccc5scnc5c4)CC3)C2=O)cn1` (racemic) [Example 61] came in with an IC50 of 50 to 200 nM.

On to `CC(c1ccc2c(c1)OCC2)N1CCC2(CC1)NC(=O)N(c1ccc(C#N)cc1)C2=O` (racemic) [Example 12, 4-(8-(1-(2,3-dihydrobenzofuran-6-yl)ethyl)-2,4-dioxo-1,3,8-triazaspiro[4.5]decan-3-yl)benzonitrile], for which the IC50 was < 50 nM.

`CC(c1ccc2scnc2c1)N1CCC2(CC1)CC(=O)N(Cc1ccc(S(C)(=O)=O)cc1)C2` (racemic) [Example 17, 8-(1-(benzo[d]thiazol-5-yl)ethyl)-2-(4-(methylsulfonyl)benzyl)-2,8-diazaspiro[4.5]decan-3-one] yielded an IC50 of 1000 to 10000 nM.

For the compound `CC(c1ccc2c(c1)OCC2)N1CCC2(CC1)C(=O)N(c1ccc(C#N)cc1)C(=O)N2C` (racemic) [Example 76], the IC50 was in the range of 1000 to 10000 nM.

In the case of `CC(c1ccc2scnc2c1)N1CCC2(CC1)NC(=O)N(Cc1ccc(S(C)(=O)=O)cc1)C2=O` (stereo not shown) [Example 10], the concentration for half-maximal inhibition (IC50) was 50 to 200 nM.

Compound `CC(c1ccc2c(c1)OCC2)N1CCC2(CC1)NC(=O)N(Cc1cncnc1)C2=O` (racemic) [Example 4, 8-(1-(2,3-dihydrobenzofuran-6-yl)ethyl)-3-(pyrimidin-5-ylmethyl)-1,3,8-triazaspiro[4.5]decane-2,4-dione] gave an IC50 of 50 to 200 nM.

`CC(c1ccc2scnc2c1)N1CCC2(CC1)C(=O)N(Cc1ccc(C#N)cc1)c1ccccc12` (racemic) [Example 29, 4-((1′-(1-(benzo[d]thiazol-5-yl)ethyl)-2-oxospiro[indoline-3,4′-piperidin]-1-yl)methyl)benzonitrile] came in with an IC50 of 200 to 1000 nM.

With `CC(c1ccc2scnc2c1)N1CCC2(CC1)C(=O)Nc1ccccc12` (racemic) [Example 20, 1′-(1-(benzo[d]thiazol-5-yl)ethyl)spiro[indoline-3,4′-piperidin]-2-one], the IC50 is 200 to 1000 nM.

`CC(c1ccc2c(c1)OCC2)N1CCC2(CC1)C(=O)Nc1ccccc12` (racemic) [Example 21, 1′-(1-(2,3-dihydrobenzofuran-6-yl)ethyl)spiro[indoline-3,4′-piperidin]-2-one]: the IC50 was in the range of 200 to 1000 nM.

Take `CC(c1ccc2scnc2c1)N1CCC2(CC1)NC(=O)N(Cc1ccc(C(F)(F)F)nc1)C2=O` (racemic) [Example 8]: the IC50 fell in the range of 50 to 200 nM.

Regarding `CC(c1ccc2scnc2c1)N1CCC2(CC1)CC(=O)N(c1ncccn1)C2` (racemic) [Example 73], the IC50 is 1000 to 10000 nM.

Compound `CC(c1ccc2scnc2c1)N1CCC2(CC1)CN(c1ccc(C#N)cc1)C(=O)N2` (racemic) [Example 34, 4-(8-(1-(benzo[d]thiazol-5-yl)ethyl)-2-oxo-1,3,8-triazaspiro[4.5]decan-3-yl)benzonitrile] gave an IC50 of 50 to 200 nM.

The compound `CC(c1ccc2scnc2c1)N1CCC2(CC1)NC(=O)N(c1ccc(C#N)cc1)C2=O` (racemic) [Example 13, 4-(8-(1-(benzo[d]thiazol-5-yl)ethyl)-2,4-dioxo-1,3,8-triazaspiro[4.5]decan-3-yl)benzonitrile] had an IC50 of 50 to 200 nM.

Consider `CC(c1ccc2scnc2c1)N1CCC2(CC1)CN(Cc1ccc(C#N)cc1)C(=O)N2` (racemic) [Example 32, 4-((8-(1-(benzo[d]thiazol-5-yl)ethyl)-2-oxo-1,3,8-triazaspiro[4.5]decan-3-yl)methyl)benzonitrile], for which the IC50 lay within 50 to 200 nM.

Consider `CC(c1ccc2scnc2c1)N1CCC2(CC1)NC(=O)N(C)C2=O` (racemic) [Example 1, 8-(1-(benzo[d]thiazol-5-yl)ethyl)-3-methyl-1,3,8-triazaspiro[4.5]decane-2,4-dione], for which the IC50 fell in the range of 200 to 1000 nM.

`CC(=O)Nc1ncc(CN2CCC3(CC2)NC(=O)N(Cc2ccc(C)nc2)C3=O)s1` (racemic) [IA3] registered an IC50 of 50 to 200 nM.
